According to US5837548A, “Treatment of inflammation by inhibition of lipid body formation” (Beth Israel Hospital, priority 1995, dated 1998):
Where two headings read alike, the source gives them in different places.

Legend:
human neutrophils [1] = experiment: cis-unsaturated fatty acid-induced lipid body formation in human neutrophils (osmium staining, light microscopy enumeration); format: cell-based; settings: for inhibition at 10 µg/mL: Homo sapiens, Neutrophil, 1 h, basal subtracted; for inhibition at 10 µg/mL / lipid bodies (mean ± SEM) PMN: NSAID 10 μg/ml, 1 h pretreatment
Experimental: Neutrophils were purified from fresh human blood obtained by venipuncture from healthy adult volunteers and collected into acidified citrate. After addition of 6% dextran 70 (McGaw, Irvine, Calif.), RBCs were allowed to sediment for 1 hour at room temperature. The leukocyte-rich supernatant was overlaid onto an equal volume of Ficoll-Paque gradient (Piscataway, N.J.), and centrifuged at 400×g for 20 min. […] Residual RBCs were lysed with hypotonic saline.
Human leukocytes (10^6 cells/mL) were incubated with varying concentrations of arachidonic acid (AA), oleic acid (OA) or vehicle at 37° C. in a 5% CO2 /95% O2 atmosphere, and after 1 hour leukocytes (10^5 cells per slide) were cytocentrifuged (550 rpm, 5 min) onto glass slides. During inhibitory studies, neutrophils were pretreated for 1 hour with varying concentrations of enzyme inhibitors, protein synthesis inhibitors, or vehicle as indicated. When PKC inhibitors were used, the pre-incubation time was reduced to 30 minutes to avoid toxic effects to the cells. […] Stock solutions for A23187, D609, U-73122, and indomethacin were prepared in DMSO and stored at -20° C. Aliquots were diluted in Ca^++ /Mg^++ fee HBSS to the indicated concentration immediately prior to use. […] The morphology of fixed cells was observed, and lipid bodies were enumerated with phase contrast microscopy and a 100× objective lens in 50 consecutively scanned leukocytes.
Results were expressed as mean±SEM and were analyzed statistically by means of the analysis of variance followed by the Newman-Keuls-Student test with the level of significance set at p<0.05. Correlation coefficients were determined by linear regression, and correlation analysis was performed by Fisher's r to z transformation with the level of significance set at p<0.05.
^1 Neutrophils (10^6 /ml) were pretreated with protein kinase C
(actinomycin D, cycloheximide) for 30 min or with phospholipase C
inhibitors (D609, U73122) for 1 h. The cells were then stimulated with
vehicle, arachidonic acid (15 μM), or oleic acid (10 μM), for 1 h.
Results are mean ± SEM from fifty consecutively counted neutrophils.
Statistically significant differences between the agonist alone and the
inhibitor are represented by an asterisk(*). Percent inhibition has been
calculated after subtracting out the basal number of lipid bodies/PMN
present prior to stimulation.
^1 Neutrophils (10^6 /ml) were pretreated with the NSAID or
vehicle for 1 h then stimulated with vehicle, arachidonic acid, or oleic
± SEM from fifty consecutively counted neutrophils. Statistically
significant differences between the agonist alone and the NSAID are
represented by an asterisk (*). Percent inhibition has been calculated
after subtracting out the basal number of lipid bodies/PMN present prior

human neutrophils [2] = settings: cited from earlier work
human eosinophils = settings: receptor-mediated; cited from earlier work
[3] = human neutrophils, staurosporine 0.1-1.0 μM, aspirin 10 μg/mL, others as in Tables 1 and 2

In the case of `CN1C(C(=O)Nc2ccccn2)=C(O)c2ccccc2S1(=O)=O` [piroxicam], the inhibition at 10 µg/mL (human neutrophils [1]; arachidonic acid 15 μM) is reported as 61%, the inhibition at 10 µg/mL (human neutrophils [1]; oleic acid 10 μM) is reported as 50% and the “lipid bodies (mean ± SEM) PMN” value (human neutrophils [1]; arachidonic acid 15 μM) is reported as 7.2 ± 0.4 lipid bodies/PMN. For the same compound, the “inhibition of arachidonic acid-induced lipid body formation” value (human neutrophils [1]; [3]) was “significantly inhibited”, the “inhibition of oleic acid-induced lipid body formation” value (human neutrophils [1]; [3]) was “significantly inhibited” and the “lipid bodies (mean ± SEM) PMN” value (human neutrophils [1]; oleic acid 10 μM) was 10.4 ± 0.4 lipid bodies/PMN.

In the case of `CCCCCCCCCCCCCC(=O)O[C@@H]1[C@@H](C)[C@@]2(O)[C@@H](C=C(CO)C[C@]3(O)C(=O)C(C)=C[C@@H]23)[C@@H]2C(C)(C)[C@]12OC(C)=O` [phorbol-12-myristate-13-acetate], the “induction of lipid body formation” value (human neutrophils [2]) is listed as “induce lipid body formation”.

For `CCCCCCCCCCCCCCCCOCC(COP(=O)([O-])OCC[N+](C)(C)C)OC(C)=O` (stereo not drawn) [platelet activating factor], the “induction of lipid body formation” value (human eosinophils) is given as “elicit lipid body formation”, the “induction of lipid body formation” value (human neutrophils [2]) is given as “Lipid body formation is also induced” and the “induction of lipid body formation” value (human neutrophils [2]; listed as PAF) is given as “elicit lipid body formation”.

For `CCCCCC=CCC=CCC=CC=CC(O)CCCC(=O)O` (stereo not drawn) [5-HETE, 5-hydroxy-6,8,11,14-eicosatetraenoic acid], the “induction of lipid body formation” value (human eosinophils) is given as “elicit lipid body formation” and the “induction of lipid body formation” value (human neutrophils [2]) is given as “elicit lipid body formation”.

For `CCCCC/C=C\C[C@H](O)/C=C/C=C\C/C=C\CCCC(=O)O` [12-HETE], the “induction of lipid body formation” value (human eosinophils) is listed as “elicit lipid body formation” and the “induction of lipid body formation” value (human neutrophils [2]) is listed as “elicit lipid body formation”.

In the case of `CCCCCCCC/C=C\CCCCCCCC(=O)OCC(CO)OC(C)=O` (racemic), the “induction of lipid body formation” value (human neutrophils [2]) is given as “induce lipid body formation”.
